From paper PMC9271048, “Probing strigolactone perception mechanisms with rationally designed small-molecule agonists stimulating germination of root parasitic weeds” (Nature Communications, 2022)

Target: T1, AtD14-AtMAX2 interaction (Arabidopsis thaliana, UniProt Q9SQR3)
T1 construct: the CDS of ShHTL7 and AtD14 were cloned into yeast expression vector pBrigde; expressed in transfected cells; host or cells: yeast AH109
Test: Yeast two-hybrid assay AtD14-AtMAX2
Assay type: cell-based
Details: up to 200 μM
Protocol: To construct plasmids for yeast two-hybrid assays, the CDS of ShHTL7 and AtD14 were cloned into yeast expression vector pBrigde to generate BD-ShHTL7 and BD-AtD14, and the CDS of ShMAX2, AtMAX2, SMAX1 were cloned into pGADT7 to make Gal4 DNA activation domain (AD) constructs, respectively. Primers used for yeast expression vector construction are listed in Supplementary Table 6. Yeast two-hybrid assays were performed using the Yeastmaker Yeast Transformation System 2 (Clontech). In brief, Yeast AH109 cells were co-transformed with specific bait and prey constructs and coated on selective growth medium SD/-Leu-Trp for 3 days at 30 °C, pick the positive constructs into liquid selective growth medium SD/-Leu-Trp shaking for 36 h at 30 °C. Washed yeast cells three times and diluted, made sure OD600 reached 2.5, then serial 10-fold dilutions of yeast cultures were spotted onto selective growth mediums that were supplemented with different concentrations of rac-GR24 and tested molecules, respectively. All yeast transformants were grown on a selective growth medium at 30 °C for 3 days.

T1 sequence (Q9SQR3 whole entry): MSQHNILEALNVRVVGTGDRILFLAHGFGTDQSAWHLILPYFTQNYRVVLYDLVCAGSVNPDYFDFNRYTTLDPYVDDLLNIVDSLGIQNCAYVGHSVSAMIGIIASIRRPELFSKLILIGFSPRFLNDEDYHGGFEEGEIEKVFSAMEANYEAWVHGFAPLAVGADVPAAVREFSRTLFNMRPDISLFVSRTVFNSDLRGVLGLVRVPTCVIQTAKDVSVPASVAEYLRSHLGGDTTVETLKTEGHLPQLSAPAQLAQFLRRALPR

SMILES: CC1=CC(OC(=O)N2CCN(C(=O)COc3ccc(Br)cc3C)CC2)OC1=O (stereo not shown) [4a]
- induction of AtD14-AtMAX2 interaction (Y2H): did not promote the interaction
